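Method: 48-hour compound exposure of cells in 96-well plates, five concentrations, linear interpolation of endpoints. At the GI50, growth is halved.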 The source made the active and inactive calls. No stated cut-off is given here; in the data, active = GI50 up to about 1.1 µM and inactive = higher.
Key:
Assay in all cases: growth of human tumour cells (NCI), 48 h
[1] = system: A498
[2] = system: A549
[3] = system: CAKI-1
[4] = system: HCT-116
[5] = system: HCT-15
[6] = system: HT-29
[7] = system: IGROV-1
[8] = system: K562
[9] = system: KM12
[10] = system: LOX IMVI
[11] = system: MDA-MB-231
[12] = system: NCI-H23
[13] = system: OVCAR-4
[14] = system: OVCAR-8
[15] = system: SF-295
[16] = system: SK-MEL-28
[17] = system: SNB-75
[18] = system: U-251
[19] = system: UACC-62
[20] = system: SNB-78

Structure (SMILES) | GI50 [1] | GI50 [2] | GI50 [3] | GI50 [4] | GI50 [5] | GI50 [6] | GI50 [7] | GI50 [8] | GI50 [9] | GI50 [10] | GI50 [11] | GI50 [12] | GI50 [13] | GI50 [14] | GI50 [15] | GI50 [16] | GI50 [17] | GI50 [18] | GI50 [19] | GI50 [20]
CCCCI(O)OS(=O)(=O)c1ccc(C)cc1 | > 100 µM (inactive) | 66.2 µM (inactive) | > 100 µM (inactive) | > 100 µM (inactive) | > 100 µM | > 100 µM (inactive) | 28.2 µM (inactive) | 67.8 µM (inactive) | 56.8 µM (inactive) | 13.9 µM (inactive) | > 100 µM (inactive) | > 100 µM (inactive) | > 100 µM (inactive) | > 100 µM (inactive) | > 100 µM (inactive) | > 100 µM (inactive) | 73.5 µM (inactive) | > 100 µM (inactive) | 89.1 µM (inactive) | –
Cc1c(C2=C(Br)C(=O)N(C)C2=O)c(=O)n(C)c(=O)n1C | 29.4 µM (inactive) | > 100 µM (inactive) | 19 µM (inactive) | 20.5 µM (inactive) | 19.4 µM | 20.3 µM (inactive) | 18 µM (inactive) | 21.3 µM (inactive) | > 100 µM (inactive) | 17.1 µM (inactive) | 25.2 µM (inactive) | 20.7 µM (inactive) | 37.7 µM (inactive) | 29.6 µM (inactive) | > 100 µM (inactive) | 39.4 µM (inactive) | > 100 µM (inactive) | 63.1 µM (inactive) | 34.4 µM (inactive) | –
N/N=C1\C(=O)N(C2CCCCCC2)C(=O)C1C(=O)NC1CCCCCC1 (stereo unspecified) | 38 µM (inactive) | 49.1 µM (inactive) | – | – | 30 µM | 32.1 µM (inactive) | 38 µM (inactive) | 30.3 µM (inactive) | 39.5 µM (inactive) | – | – | 22.4 µM (inactive) | 28.3 µM (inactive) | 39.3 µM (inactive) | 45.2 µM (inactive) | > 10 µM (inactive) | – | 15.8 µM (inactive) | 18.8 µM (inactive) | 21.8 µM (inactive)
CCCN(CCC)c1c([N+](=O)[O-])cc(C(=O)N(C)C)cc1[N+](=O)[O-] | – | 51.5 µM (inactive) | > 100 µM (inactive) | 43.4 µM (inactive) | 40.4 µM | > 100 µM (inactive) | 69.2 µM (inactive) | 19.2 µM (inactive) | > 100 µM (inactive) | – | – | 53.2 µM (inactive) | 15.5 µM (inactive) | > 100 µM (inactive) | > 100 µM (inactive) | > 100 µM (inactive) | 17 µM (inactive) | 86.5 µM (inactive) | – | > 100 µM (inactive)
Cc1cc(-c2cc(C(C)(C)C)c(O)c(C(C)(C)C)c2)c(C)cc1-c1cc(C(C)(C)C)c(O)c(C(C)(C)C)c1 | 27.3 µM (inactive) | > 100 µM (inactive) | > 100 µM (inactive) | > 100 µM (inactive) | > 100 µM | > 100 µM (inactive) | > 100 µM (inactive) | > 100 µM (inactive) | > 100 µM (inactive) | > 100 µM (inactive) | > 100 µM (inactive) | > 100 µM (inactive) | > 100 µM (inactive) | > 100 µM (inactive) | > 100 µM (inactive) | > 100 µM (inactive) | > 100 µM (inactive) | > 100 µM (inactive) | > 100 µM (inactive) | –
C=C1CC(c2ccc(OCCCN3C(=O)c4ccccc4C3=O)c(OC)c2)OC1=O (stereo unspecified) | 1.77 µM (inactive) | 13.6 µM (inactive) | 3.66 µM (inactive) | 1.6 µM (inactive) | 2.71 µM | 2.58 µM (inactive) | 2.56 µM (inactive) | 1.07 µM (active) | 10.8 µM (inactive) | 1.74 µM (inactive) | 9.25 µM (inactive) | 4.82 µM (inactive) | 1.06 µM (active) | 2.93 µM (inactive) | 11.2 µM (inactive) | 2.21 µM (inactive) | 0.382 µM (active) | 7.98 µM (inactive) | 2.07 µM (inactive) | –
COC1C(O)CC(OC2C(C)OC(Oc3cc(O)c4c(O)c5c(cc4c3)C[C@@H]([C@H](OC)C(=O)[C@@H](O)[C@@H](C)O)[C@H](OC3CC(OC4CC(OC6CC(C)(O)C(O)C(C)O6)C(O)C(C)O4)C(O)C(C)O3)C5=O)CC2OC(C)=O)OC1C (stereo partly specified) | > 100 µM (inactive) | 63.1 µM (inactive) | > 100 µM (inactive) | 59.2 µM (inactive) | > 100 µM | 65.2 µM (inactive) | 41.1 µM (inactive) | 40.1 µM (inactive) | 88.1 µM (inactive) | 19.5 µM (inactive) | 91.6 µM (inactive) | 88.1 µM (inactive) | > 100 µM (inactive) | 67.1 µM (inactive) | > 10 µM (inactive) | 32.2 µM (inactive) | > 100 µM (inactive) | 48.1 µM (inactive) | 29.4 µM (inactive) | –
O=C1CC(O)c2c(Cl)sc(Cl)c21 (stereo unspecified) | 22.1 µM (inactive) | 16.4 µM (inactive) | 3.3 µM (inactive) | 3.83 µM (inactive) | 3.39 µM | 2.88 µM (inactive) | 8.13 µM (inactive) | 3.37 µM (inactive) | 3.9 µM (inactive) | 2.08 µM (inactive) | 27.7 µM (inactive) | 15.3 µM (inactive) | 18.9 µM (inactive) | 4.07 µM (inactive) | 23.2 µM (inactive) | 6.46 µM (inactive) | 14.4 µM (inactive) | 13.9 µM (inactive) | 14.7 µM (inactive) | –
COC(=O)C1(C(=O)OC)Cc2ccc(OC)cc2C2=C1C(=O)c1ccccc1C2=O | 18.3 µM (inactive) | 14.9 µM (inactive) | 0.423 µM (active) | 3.24 µM (inactive) | 10.7 µM | 14.4 µM (inactive) | 2.77 µM (inactive) | 1.84 µM (inactive) | 6.85 µM (inactive) | 2.17 µM (inactive) | 1.99 µM (inactive) | 6.62 µM (inactive) | 1.77 µM (inactive) | 2.4 µM (inactive) | 3.77 µM (inactive) | 17.1 µM (inactive) | 17.7 µM (inactive) | 5.56 µM (inactive) | 1.85 µM (inactive) | –
CCOC(=O)C(C)(c1cn(C)c2ccccc12)c1cn(C)c2ccccc12 | > 100 µM (inactive) | 81.5 µM (inactive) | 41.6 µM (inactive) | 34.3 µM (inactive) | > 100 µM | > 100 µM (inactive) | > 100 µM (inactive) | 66.2 µM (inactive) | > 100 µM (inactive) | – | – | 44.7 µM (inactive) | 32.5 µM (inactive) | 52.2 µM (inactive) | 24.5 µM (inactive) | > 100 µM (inactive) | 19 µM (inactive) | 57.5 µM (inactive) | 87.9 µM (inactive) | 70 µM (inactive)
CCc1cccc(C)c1NC(=O)C(=O)Cc1nc2ccccc2s1 | > 100 µM (inactive) | > 100 µM (inactive) | > 100 µM (inactive) | > 100 µM (inactive) | – | > 100 µM (inactive) | 0.444 µM (active) | > 100 µM (inactive) | > 100 µM (inactive) | – | – | > 100 µM (inactive) | > 100 µM (inactive) | > 100 µM (inactive) | > 100 µM (inactive) | > 100 µM (inactive) | > 100 µM (inactive) | > 100 µM (inactive) | > 100 µM (inactive) | > 100 µM (inactive)
O=C1CN(C(=O)c2ccccc2)Cc2[nH]c3ccccc3c21 | – | > 100 µM (inactive) | – | > 100 µM (inactive) | > 100 µM | > 100 µM (inactive) | > 100 µM (inactive) | > 100 µM (inactive) | > 100 µM (inactive) | > 100 µM (inactive) | – | > 100 µM (inactive) | > 100 µM (inactive) | > 100 µM (inactive) | > 100 µM (inactive) | > 100 µM (inactive) | > 100 µM (inactive) | > 100 µM (inactive) | > 100 µM (inactive) | > 100 µM (inactive)
O=c1cc(/C=C/c2ccc(O)c(O)c2)cc(/C=C/c2ccc(O)c(O)c2)o1 | 11 µM (inactive) | 12.8 µM (inactive) | 10.9 µM (inactive) | 8.17 µM (inactive) | 10.4 µM | 11.4 µM (inactive) | 12.9 µM (inactive) | 2.9 µM (inactive) | 8.43 µM (inactive) | 15.7 µM (inactive) | 11.5 µM (inactive) | 14.9 µM (inactive) | 14.3 µM (inactive) | 18.6 µM (inactive) | 9.44 µM (inactive) | 16.4 µM (inactive) | 10.5 µM (inactive) | 6.95 µM (inactive) | 8.39 µM (inactive) | –
c1cncc(C2N3CCCCC3[C@@H]3c4[nH]c5ccccc5c4CCN23)c1 (stereo partly specified) | > 100 µM (inactive) | > 100 µM (inactive) | > 100 µM (inactive) | > 100 µM (inactive) | > 100 µM | > 100 µM (inactive) | > 100 µM (inactive) | > 100 µM (inactive) | – | – | – | > 100 µM (inactive) | > 100 µM (inactive) | > 100 µM (inactive) | > 100 µM (inactive) | > 100 µM (inactive) | > 100 µM (inactive) | > 100 µM (inactive) | 47.6 µM (inactive) | 87.1 µM (inactive)
O/N=N/c1ccc2ccccc2n1 | 72.9 µM (inactive) | > 100 µM (inactive) | > 100 µM (inactive) | > 100 µM (inactive) | > 100 µM | > 100 µM (inactive) | > 100 µM (inactive) | > 100 µM (inactive) | > 100 µM (inactive) | > 100 µM (inactive) | > 100 µM (inactive) | > 100 µM (inactive) | > 100 µM (inactive) | > 100 µM (inactive) | > 100 µM (inactive) | > 100 µM (inactive) | 75.5 µM (inactive) | > 100 µM (inactive) | > 100 µM (inactive) | –
